Measurements from patent US20220119446A1, “BIOMARKERS AND TREATMENT OF NEURONAL INJURY AND NEURODEGENERATION” (Board of Supervisons of Louisiana State University and …, priority 2018, published 2022).
Entries after “also recorded” stand apart in the source; their conditions may differ. * marks the point of attachment. Boc = CC(C)(C)OC(=O)*

Legend:
[1] = system: Wnt5a; experiment: Western blot of secreted (sWnt5a) and cellular (cWnt5a) Wnt5a in RPE cells under UOS; format: cell-based, human
Procedure: To monitor transcription, translation, and secretion of Wnt5a, we performed western blot assays using cellular lysates and medium from hpRPE undergoing UOS+/−NPD1 at different time points. Medium was precipitated using Methanol/Chloroform to bring down all secreted Wnt5a.
The pellet can be re-suspended and denatured in 100 μl of 2× Laemmli sample buffer (Bio-Rad Laboratories, Hercules, Calif.) at 95° C. for 5 min. MCAo brain tissue and cell samples can be homogenized using RIPA (Thermo Fisher Scientific, Waltham, Mass.) buffer supplemented with protease and phosphatase inhibitor cocktails (Millipore Sigma, Burlington, Mass.). In embodiments, the amount of 30 μg of total protein is loaded in NuPAGE® Novex® 4-12% Bis-Tris precast gels (Life Technologies Corporation, Carlsbad, Calif.) and run at constant 120V for about 1 hour and 20 min. Proteins can be transferred to μm Nitrocellulose membrane using Bio-Rad Trans-Blot® Turbo™ System (Bio-Rad Laboratories, Hercules, Calif.). ECL™ Plex Fluorescent Rainbow Markers (GE Healthcare, Chicago, Ill.) can be used as the ladder for protein's molecular weight. Membranes can be blocked using 5% non-fat dry milk (Bio-Rad Laboratories, Hercules, Calif.) in TBS with 1% Tween® 20 (TBST-10×) (Croda International, Snaith, United Kingdom) for 1 hour and incubated overnight with primary antibodies. Anti-mouse or anti-rabbit secondary antibodies conjugated with Cy3 or Cy5 can be used to visualize the protein of interest. Immunoblots can be documented using LAS 4000 imaging system (GE Healthcare Life Sciences, Marlborough, Mass.). A time course exposition can be produced in each case to prevent quantification of saturated images. In embodiments, densitometry data are obtained using ImageQuant™ TL software (GE Healthcare Life Sciences, Marlborough, Mass.).
The pellet was re-suspended and denatured in 100 μl of 2× Laemmli sample buffer (Bio-Rad Laboratories) at 95° C. for 5 min. MCAo brain tissue and cell samples were homogenized using RIPA (Thermo Fisher Scientific) buffer supplemented with protease and phosphatase inhibitor cocktails (Sigma). The amount of 30 μg of total protein was loaded in NuPAGE® Novex® 4-12% Bis-Tris precast gels (Life Technologies Corporation) or Mini-PROTEAN TGX Stain free gels 4-15% and ran at constant 120V for 1 hour and 20 min or 250 V for 40 min respectively. Proteins were transferred to μm Nitrocellulose or LF-PVDF membrane using Bio-Rad Trans-Blot® Turbo™ System (Bio-Rad Laboratories). ECL™ Plex Fluorescent Rainbow Markers (GE Healthcare) were used as the ladder for protein's molecular weight. […] A time course exposition was produced in each case to prevent quantification of saturated images. […]

[2] = system: FZD5; experiment: SYBR green real-time PCR of Wnt5a receptors/co-receptors in RPE cells under UOS; format: cell-based, human
Procedure: Cell samples, total RNA was extracted by RNeasy Mini Kit (QIAGEN) following manufacturer's protocol. The purity and concentration of RNA were determined by NanoDrop ND-1000 Spectrophotometer (Thermo Fisher Scientific). cDNA first strand was obtained from one microgram of total RNA using iScript™ Reverse Transcription Supermix (Bio-Rad Laboratories, CA, USA). The resulting cDNA was used as template SYBR-green or Eva-green based real-time PCR quantification using SsoAdvance Universal Supermix (Bio-Rad Laboratories). Data was collected and analyzed using CFX Manager 3.0 software, the ΔΔCt method. Melting curve was produced for every run to assure a unique amplified product per primer set.

[3] = system: rats subjected to MCAo; experiment: Transient MCAo: MRI of lesion volume; format: in vivo; conditions: rat, 2 h MCAo, Box5 IV 1 h later, day 7
Procedure: The right MCA can be occluded for 2 h by intraluminal filament, as described previously (Belayev et al. 2011). Briefly, the right common carotid artery (CCA) and external carotid artery (ECA) can be exposed through midline neck incision, and then completely isolated from the surrounding nerves. The occipital branches of the ECA and pterygopalatine artery can be ligated. A 4-cm of 3-0 nylon filament, coated with poly-L-lysine can be advanced to the origin of MCA through the proximal ECA via internal carotid artery. The filament can be inserted 20 to 22 mm from the bifurcation of the CCA, according to the animal's body weight. The neck incision can then be closed, and the rats can be returned to their cages. After about 2 h of MCAo, the rats can be re-anesthetized with the same anesthetic combination and the intraluminal filament can be gently removed. […]
In embodiments, high-resolution ex vivo magnetic resonance imaging (MRI) is performed on 4% paraformaldehyde-fixed brains at each time point (days 1, 3 and 7) using an 11.7T Bruker Advance 8.9 cm horizontal bore instrument equipped with an 89 mm (ID) receiver coil (Bruker Biospin, Billerica, Mass., USA). T2-weighted images (T2WI), diffusion weighted images (DWI), 3D volumes and apparent diffusion coefficient (ADC) maps can be collected and analyzed as previously described and known in the art (Obenaus et al. 2011). […]

Row | Compound | secreted Wnt5a (sWnt5a) in medium ([1]; ARPE-19 cells, 600 μM H2O2 and 10 ng/ml TNFα, 6 hours, 100 nM NPD1) | secreted Wnt5a (sWnt5a) in medium ([1]; hpRPE cells under UOS, Pitstop2 added 2 hours before harvesting) | FZD5 expression ([2]; ARPE-19 cells, UOS gives 3-fold increase (FIG. 1F)) | FZD5 mRNA ([2]; hpRPE exposed to UOS, UOS gives 2-fold rise) | ROR1 expression ([2]; reduced under UOS) | MRI lesion (infarct) volume [3]
1 | CC/C=C\C[C@H](O)\C=C/C=C/C=C/[C@H](O)C/C=C\C/C=C\CCC(=O)O [NPD1, 10R,17S-dihydroxy-docosa-4Z,7Z,11E,13E,15Z,19Z-hexaenoic acid] | disappeared; also recorded: decreases band intensity close to control levels | decreased Wnt5a in the medium; also recorded: decreased media sWnt5a; also recorded: decreases soluble Wnt5a | counteracted this effect | downregulated | re-established | –
2 | t-Boc-NH-Met-Asp-Gly-Cys-Glu-Leu-CO2H (Boc-MDGCEL-OH) [Box5] | – | – | – | – | – | steep decreased in the infarcted volume; also recorded: resembling DHA treatment; also recorded: reduces stroke size; also recorded: decreased volume of brain damage
